Biological target: T1, EA-activated TRPC5 (Mus musculus, UniProt Q9QX29)
T1 construct: expressed in transfected cells; host or cells: HEK293-mTRPC5-YFP
T1 sequence (Q9QX29 1-975): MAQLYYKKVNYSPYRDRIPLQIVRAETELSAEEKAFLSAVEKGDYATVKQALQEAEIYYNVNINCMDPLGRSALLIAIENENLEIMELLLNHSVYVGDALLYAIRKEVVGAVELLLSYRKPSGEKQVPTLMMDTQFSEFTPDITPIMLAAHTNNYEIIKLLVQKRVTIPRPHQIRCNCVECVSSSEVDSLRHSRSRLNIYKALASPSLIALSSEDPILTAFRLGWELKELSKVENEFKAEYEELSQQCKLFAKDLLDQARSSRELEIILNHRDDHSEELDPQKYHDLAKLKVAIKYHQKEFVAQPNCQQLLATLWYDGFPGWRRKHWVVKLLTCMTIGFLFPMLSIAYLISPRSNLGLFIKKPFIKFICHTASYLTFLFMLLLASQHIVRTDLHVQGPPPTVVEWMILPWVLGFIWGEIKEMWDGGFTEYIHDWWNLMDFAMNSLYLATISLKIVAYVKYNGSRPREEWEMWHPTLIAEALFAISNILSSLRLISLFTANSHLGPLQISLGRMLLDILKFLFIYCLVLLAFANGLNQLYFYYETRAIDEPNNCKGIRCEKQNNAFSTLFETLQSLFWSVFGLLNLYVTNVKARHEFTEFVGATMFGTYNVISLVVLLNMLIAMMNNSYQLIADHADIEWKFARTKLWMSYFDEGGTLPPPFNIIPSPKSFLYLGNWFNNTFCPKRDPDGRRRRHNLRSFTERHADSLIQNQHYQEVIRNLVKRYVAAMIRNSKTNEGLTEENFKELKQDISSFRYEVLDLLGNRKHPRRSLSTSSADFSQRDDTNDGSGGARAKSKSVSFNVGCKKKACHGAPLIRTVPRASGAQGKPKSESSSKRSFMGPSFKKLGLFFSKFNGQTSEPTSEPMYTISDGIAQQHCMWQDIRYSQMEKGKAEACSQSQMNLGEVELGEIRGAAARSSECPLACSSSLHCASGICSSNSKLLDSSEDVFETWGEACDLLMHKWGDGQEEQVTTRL
Assay: FLIPR Ca2+ assay, E isomers silencing EA-activated TRPC5 (HEK293-mTRPC5-YFP)
Format: cell-based
From the text: Müller, Niemeyer, et al., Schaefer & Thorn-Seshold 2025: Ideal Efficacy Photoswitching of TRPC4/5 in Tissue but it can justify why the affinity of the E/Z-isomers may be similar.
(2) The EC50 values are reported as the midpoints of unconstrained sigmoidal fits to the FLIPR data (Fig 1l and Supplementary Fig. 2): with different levels of channel activation / blocking and very different Hill slopes across different compounds, isomers, and the two channels. This argues that the midpoint values only capture one of the several important factors describing the […]
We believe that it is possible to derive indicative relative values for binding affinity comparing the E and Z isomers of the same compound using only the combination of FLIPR and ephys data as reported in this paper; this analysis is being developed in a separate paper (see also below).
Supplementary Table 1. Potencies on TRPC4/5 depicted as either simple agonistic potency (blue) or else inhibitory […]
. Z*-values refer to mostly-Z-isomer reached at PSS at 365 nm, E*-values refer to experiments that initially applied 100% E-isomer (thermally relaxed), though in both cases the Ca2+ imaging in FLIPR with Fluo4-AM uses 470 nm excitation, which may over time promote photoswitching towards a PSS that is intermediate between those of pure-365 nm and all-E; this is controlled for in the more reliable ephys measurements). (Table indices: a, data from ref7; b, data from ref2; c, data from ref3; d, data from ref8.) EC50 [nM] (for simple agonism or EA-competitive inhibition)
E-AzPico 90 (vs 30 nM EA) 67 (vs 30 nM EA) […]
orange: inhibitory effect ag.: agonistic effect
1.1.1 From always-active antagonists and agonists towards efficacy photoswitches […]
photoisomerising an azobenzene that is merged in at the C’4 position yielding the compounds […]
inhibitory effect for the E-isomers (Supplementary Table 1). Essentially, the effects of Pico145 and AM237 are latent within a single (two-state reversibly photoswitchable) molecule. This combination is what we call an efficacy switch (also see main text Fig. 1e-j).
1.1.2 Mechanistic test for efficacy photoswitching […]
deliver (Fig. 1-2) is a powerful support for an efficacy switch interpretation. To indirectly support this further, we also measured the effects of E-AzPico and E-AzHC against EA-activated TRPC4/5.
Both E-isomers bind to TRPC4/5 and inhibit EA-evoked currents with nanomolar potencies (Supplementary Fig. 2, Supplementary Table 2). This supports the hypothesis that E- […]
to be an EA-competitive binder5,9,10), so their efficacy as single agent photoswitches results from E/Z-competitive binding that is determined by their PSS. […]
Supplementary Table 2. […] (a Inhibitory effect measured against 30 nM EA; b Inhibitory effect measured against 50 nM EA). […]

## Cn1c(=O)n(CCCO)c(=O)c2c1nc(Oc1ccc(/N=N/c3ccccc3)c(OC(F)(F)F)c1)n2Cc1ccc(Cl)cc1 [E-AzPico]
Inhibitory IC50 (versus 30 nM EA) TRPC5, E isomer, thermally relaxed, 30 nM EA
  IC50: 67 nM
Inhibitory IC50 (versus 50 nM EA) TRPC5, E isomer, 50 nM EA
  IC50: 69 nM

Source: publication PMC12858405, “Ideal efficacy photoswitching for chromocontrol of TRPC4/5 channel functions in live tissues” (Nature Chemical Biology, 2026)
